Source: article PMC13576449, “Small-Molecule Activators of PRMT1: Discovery, SAR Analyses, and Proapoptotic Effects in Pancreatic Cancer Cells” (Journal of Medicinal Chemistry, 2026)

What was measured:
PaTu8988T cells [1] = assay: CaspaseGlo 3/7 apoptosis assay, PaTu8988T; type: cell-based, human; conditions: 72 h
Procedure: (§1) 6 Effect of small-molecule modulators on gemcitabine-induced apoptosis and tumor growth of PDAC cells. […] After 2 h, gemcitabine (GEM) was added at increasing concentrations (10 and 25 nM) or not (−) for another incubation of 72 h. Subsequently, the luminescence-based caspase3/7 assay was performed. The activity of caspase 3/7 in treated cells was normalized to the activity measured in untreated cells (dark gray bar), which was set to 1 (mean SD, n = 6 for PANC-1 and n = 4 for PaTu8988T; *: p ≤ 0.05, **: p ≤ 0.01, ***: p ≤ 0.001, using the student t-test). […] After 24 h, gemcitabine (GEM, 1 μM) was added (+) or not (−) for another incubation of 48 h. Subsequently, the apoptotic cell fraction was quantified in % by flow cytometry using FITC-labeled Annexin V (AV) and propidium iodide (PI) staining (in B: mean ± SD, n = 6 for PANC-1 and n = 5 for PaTu8988T; **: p ≤ 0.01, ***: p ≤ 0.001, ****: p ≤ 0.0001, using the student t-test). […] Viable cells are AV/PI double-negative (AV–/PI–, lower left quadrant, Q4), early apoptotic cells are AV single-positive (AV+/PI– upper left quadrant, Q1), late apoptotic cells are AV/PI double-positive (AV+/PI+, upper right quadrant, Q2), and necrotic cells are PI single-positive (AV–/PI+, lower right quadrant, Q3). The sum of early and late apoptotic cell numbers ([…] in %) is indicated in red. D-G: The workflow of the PDAC xenograft experiments in mice is depicted in D. PANC-1 cells (2 × 10^6 cells/mouse) were subcutaneously (s.c.) injected in the right flank of female athymic nude mice. Small tumor nodules appeared 6 days post-engraftment. […] Tumor volumes were measured every second day using a digital caliper. […] At the end of the 2 weeks, mice were sacrificed and tumors were dissected (F).
(§2) For quantification of apoptosis using the CaspaseGlo 3/7 assay (Promega), PANC-1 and PaTu8988T cells were seeded in triplicates in white 96-well plate (5 × 10^3 cells/well) and cultured in the absence or presence of compounds. After 2 h, as soon as the cells had settled, gemcitabine was added or not, and cells were incubated for another 72 h. Subsequently, the caspase3/7 activity was measured using the luminescence-based CaspaseGLO-3/7 assay (Promega). To this end, the CaspaseGlo reagent was subsequently added to the cells at a 1:1 ratio and incubated at room temperature and under agitation for 30 min protected from light. The luminescence measurements were carried out using a microplate reader (Mithras LB 940, Berthold).

PANC-1 cells = assay: CaspaseGlo 3/7 apoptosis assay, PANC-1; type: cell-based, human; conditions: 72 h
Procedure: as §1, §2

PANC-1 xenografts = assay: PDAC xenograft mouse model, tumor growth; type: in vivo; conditions: female athymic nude mice, intraperitoneal, 2 weeks; 150 mg/kg TR-07 daily, 10 mg/kg gemcitabine every second day; n = 5
PaTu8988T cells [2] = assay: Annexin V/PI flow cytometry apoptosis assay, PaTu8988T; type: cell-based, human; conditions: Homo sapiens, PaTu 8988t, 48 h; read-out: Q4, viable cells (AV–/PI–)
Procedure: 6 Effect of small-molecule modulators on gemcitabine-induced apoptosis and tumor growth of PDAC cells. […] Subsequently, the luminescence-based caspase3/7 assay was performed. The activity of caspase 3/7 in treated cells was normalized to the activity measured in untreated cells (dark gray bar), which was set to 1 (mean SD, n = 6 for PANC-1 and n = 4 for PaTu8988T; *: p ≤ 0.05, **: p ≤ 0.01, ***: p ≤ 0.001, using the student t-test). […] After 24 h, gemcitabine (GEM, 1 μM) was added (+) or not (−) for another incubation of 48 h. Subsequently, the apoptotic cell fraction was quantified in % by flow cytometry using FITC-labeled Annexin V (AV) and propidium iodide (PI) staining (in B: mean ± SD, n = 6 for PANC-1 and n = 5 for PaTu8988T; **: p ≤ 0.01, ***: p ≤ 0.001, ****: p ≤ 0.0001, using the student t-test). […] Viable cells are AV/PI double-negative (AV–/PI–, lower left quadrant, Q4), early apoptotic cells are AV single-positive (AV+/PI– upper left quadrant, Q1), late apoptotic cells are AV/PI double-positive (AV+/PI+, upper right quadrant, Q2), and necrotic cells are PI single-positive (AV–/PI+, lower right quadrant, Q3). The sum of early and late apoptotic cell numbers (Q2+Q3 in %) is indicated in red. D-G: The workflow of the PDAC xenograft experiments in mice is depicted in D. PANC-1 cells (2 × 10^6 cells/mouse) were subcutaneously (s.c.) injected in the right flank of female athymic nude mice. […] Tumor volumes were measured every second day using a digital caliper. […] At the end of the 2 weeks, mice were sacrificed and tumors were dissected (F).
For quantification of apoptosis by Fluorescence Activated Cell Sorting (FACS), PANC-1 and PaTu8988T cells were seeded in 6-well plates (250 × 10^3 cells/well) and cultured in the absence or presence of compounds. After 24 h, gemcitabine was added or not for another 48 h. After harvesting and washing, unfixed cells (0.5–1 × 10^6) were incubated with FITC-labeled Annexin V and/or PI (BD Pharmingen) according to the manufacturer’s instructions. All samples were analyzed using a BD FACSCalibur flow cytometer (BD Bioscience). Data were acquired using the CellQuestPro program and analyzed with the FlowJo (FlowJo LLC) software.
After 24 hours, gemcitabine (GEM, 1 µM) was added (+) or not
(-) for another incubation of 48 hours. Subsequently, the apoptotic cell fraction was assessed by flow cytometry using FITC-labeled Annexin V (AV) and propidium iodide (PI) staining and quantified in % (mean ± SD, n=3-4; ns: not significant, *: p ≤0.05, **: p ≤0.01, ***: p ≤0.001, ****: p ≤0.0001, using the student t-test).

[3] = compound 10 μM, after 2 h gemcitabine 10 and 25 nM
[4] = TR-07 10 μM or gemcitabine 10 and 25 nM

Compound	gemcitabine-induced apoptosis, caspase 3/7 activity, co-treatment (PaTu8988T cells [1]; [3])	gemcitabine-induced apoptosis, caspase 3/7 activity, co-treatment (PANC-1 cells; [3])	tumor growth of PANC-1 xenografts (PANC-1 xenografts)	apoptosis, caspase 3/7 activity, single agent (PaTu8988T cells [1]; [4])	viability at 10 µM (PaTu8988T cells [2])	apoptosis, caspase 3/7 activity, single agent (PANC-1 cells; [4])
CC(C)Oc1ccc(-c2c[nH]cc2CN(C)CCN)cc1 [MS023, reference compound]	diminished	diminished	–	–	–	–
Nc1ccn([C@@H]2O[C@H](CO)[C@@H](O)C2(F)F)c(=O)n1 [gemcitabine, reference compound]	–	–	significantly reduced the tumor growth compared to the control mice	underwent apoptosis in a gemcitabine concentration-dependent manner	78.6%	underwent apoptosis in a gemcitabine concentration-dependent manner
